PubChem BioAssay (NCI)
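Growth conditions: 96-well plates. Treatment: test compound, 48 hours, 5 concentrations. Analysis: linear interpolation between bracketing concentrations; unreached endpoints set to highest concentration. TGI: concentration producing complete growth inhibition.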

Experiments:
Test in all cases: NCI-60 cell line screen, 48 h
[1] = tested on: TK-10 renal
[2] = tested on: HCT-15 colon
[3] = tested on: MDA-MB-435
[4] = tested on: HS 578T breast
[5] = tested on: MOLT-4 leukemia
[6] = tested on: RPMI-8226 leukemia
[7] = tested on: MDA-N
[8] = tested on: PC-3 prostate
[9] = tested on: SN12C renal
[10] = tested on: RXF 393 renal
[11] = tested on: SR leukemia
[12] = tested on: HL-60(TB) leukemia
[13] = tested on: SK-MEL-2 melanoma
[14] = tested on: IGROV1 ovarian
[15] = tested on: HCC-2998 colon
[16] = tested on: K-562 leukemia
[17] = tested on: HOP-62 NSCLC
[18] = tested on: NCI-H522 lung
[19] = tested on: MDA-MB-231 breast

Measured: TGI

CCOC(=O)C(O)(NC(=O)Nc1ccc(F)cc1)C(F)(F)F (stereo unspecified)
not listed: [17] | [18] | [19]
> 100 µM: all other assays above

CCOC(=O)C(NC(=O)NC(C(=O)OCC)C(=O)OCC)C(=O)OCC
not listed: [12] | [19]
> 100 µM: all other assays above

CCOC(CCCN1CCC2(CC1)C(=O)N(C)CN2c1ccccc1)(OCC)c1ccc(F)cc1
29.6 µM: [8]
21.3 µM: [15]
31.2 µM: [14]
34.6 µM: [10]
21.9 µM: [9]
29.3 µM: [19]
33 µM: [16]
30.6 µM: [12]
22.6 µM: [5]
24.5 µM: [7]
14.7 µM: [17]
22.2 µM: [1]
29.9 µM: [6]
34.2 µM: [18]
22.7 µM: [2]

CN1CN(c2ccccc2)C2(CCN(CCCC(=O)c3cccs3)CC2)C1=O
38.9 µM: [15]
37.4 µM: [17]
87.6 µM: [1]
not listed: [3] | [4] | [13]
> 100 µM: all other assays above

CN1C(=O)C(O)CC1c1cccc(F)c1 (stereo unspecified)
not listed: [1] | [4]
> 100 µM: all other assays above

O=[N+]([O-])c1nccn1CC1OC(n2ccnc2[N+](=O)[O-])C(O)C(O)C1O (stereo unspecified)
not listed: [2] | [3] | [9] | [14] | [18] | [19]
> 100 µM: all other assays above

CC(Oc1ccc(OCC2CCCCC2)cc1)C(=O)N(CCO)CCO (stereo unspecified)
not listed: [3] | [4] | [6] | [7] | [8] | [11] | [17] | [19]
> 100 µM: all other assays above

CC(=O)O[C@]12CCC[C@H]1C1(O)C(O)CCC[C@H]12 (stereo partly specified)
not listed: [3] | [4] | [7] | [8] | [14] | [15] | [19]
> 100 µM: all other assays above

CC(CCc1ccc2c(c1)c(=N)c1ccc(N)cc1n2O)CC(C)(C)C (stereo unspecified)
17.9 µM: [2]
3.42 µM: [12]
3.31 µM: [17] | [13]
3.13 µM: [16]
4.64 µM: [6]
4.43 µM: [10]
3.22 µM: [9]
4.03 µM: [11]
3.29 µM: [1]
2.95 µM: [14]

CN=C(N)N/N=C(\C)c1ccc2oc3ccc(/C(C)=N/NC(N)=NC)cc3c2c1
15 µM: [16]
> 30.6 µM: [7]
4.97 µM: [15]
> 50.7 µM: [10]
10.7 µM: [8] | [12]
6.41 µM: [6]
4.75 µM: [11]
5.24 µM: [13]
> 100 µM: [1] | [2] | [3]
2.42 µM: [5]
> 24.5 µM: [9]

OC(c1ccccc1)(c1ccccc1)c1cccnc1
> 100 µM: [1] | [2] | [6] | [9] | [17] | [13] | [14] | [15] | [16]

Cc1cccc(Nc2cn(CCOc3ccccc3)c(=O)n(CCOc3ccccc3)c2=O)c1
not listed: [1] | [12] | [13] | [18] | [19]
> 100 µM: all other assays above

O=C(CC(C(=O)c1cccs1)c1ccsc1)c1ccsc1 (stereo unspecified)
50 µM: [18]
71.2 µM: [4]
not listed: [7] | [13]
> 100 µM: all other assays above

CC1CC/C(=C\c2ccc(N(C)C)cc2)C(=O)/C1=C/c1ccc(N(C)C)cc1 (stereo unspecified)
not listed: [4] | [6] | [10] | [12]
> 100 µM: all other assays above

COC(=O)[C@@]12OC[C@]34C([C@@H](O)C1O)[C@@]1(C)CC(=O)C(O)=C(C)C1C[C@H]3OC(=O)[C@H](OC(=O)CC(C)C(F)(F)F)[C@H]42 (stereo partly specified)
0.362 µM: [13]
0.0512 µM: [6]
1.05 µM: [14]
0.0599 µM: [15]
0.471 µM: [10]
1.29 µM: [1]
0.0215 µM: [11]
0.088 µM: [18]
0.911 µM: [9]
0.0175 µM: [12]
1.77 µM: [2]
0.312 µM: [5]
0.594 µM: [17]

CCOC(=O)C1(Cc2c[nH]c3ccccc23)C(O)CCCN1C(C)=O (stereo unspecified)
not listed: [7] | [9] | [18]
> 100 µM: all other assays above
